pIC50: −log10 of the molar value.
Target: T1, Recombinant human KIF18A (1-467 His-tagged) protein (Homo sapiens, UniProt Q8NI77)
T1 construct: Recombinant human KIF18A (1-467 His-tagged) protein; His; made in house
Experiment: KIF18A Enzyme Assay: microtubule-stimulated ATPase activity (ADP-Glo)
Type: biochemical
Conditions: 30 nM KIF18A, 75 μM ATP
Description: KIF18A Enzyme Assay: Microtubule-stimulated ATPase activity assay is used to measure KIF18A enzyme activity after treatment with compound. Compounds were 2-fold serially diluted in DMSO (Sigma Inc) over 22-point concentration range. Recombinant human KIF18A (1-467 His-tagged) protein was expressed using a baculovirus system and purified by affinity chromatography by Amgen Inc. Concentrations of KIF18A protein, microtubules (MT), and ATP in the reaction were optimized for standardized homogenous enzyme assay using ADP-Glorm Kinase/ATPase Assay Kit (Promega Inc). The assay measures ADP formed from the ATPase reaction. […] Read luminescence using EnVision microplate reader with ultra-luminescence module (Perkin Elmer Inc). Concentration-response curve-fitting and IC50 determination was performed using Genedata Screener Software (Standard 15.0.1, Genedata Inc) with a four-parameter logistic regression fit model.
Table A provides data for compounds exemplified in the present application and priority document thereof, as representative compounds of the present invention, as follows: chemical name (as named by either ACD software or ChemDraw (Professional 15.0)) and biological data (IC50 in μM). Ex. # refers to Example No.

T1 sequence (Q8NI77 1-467): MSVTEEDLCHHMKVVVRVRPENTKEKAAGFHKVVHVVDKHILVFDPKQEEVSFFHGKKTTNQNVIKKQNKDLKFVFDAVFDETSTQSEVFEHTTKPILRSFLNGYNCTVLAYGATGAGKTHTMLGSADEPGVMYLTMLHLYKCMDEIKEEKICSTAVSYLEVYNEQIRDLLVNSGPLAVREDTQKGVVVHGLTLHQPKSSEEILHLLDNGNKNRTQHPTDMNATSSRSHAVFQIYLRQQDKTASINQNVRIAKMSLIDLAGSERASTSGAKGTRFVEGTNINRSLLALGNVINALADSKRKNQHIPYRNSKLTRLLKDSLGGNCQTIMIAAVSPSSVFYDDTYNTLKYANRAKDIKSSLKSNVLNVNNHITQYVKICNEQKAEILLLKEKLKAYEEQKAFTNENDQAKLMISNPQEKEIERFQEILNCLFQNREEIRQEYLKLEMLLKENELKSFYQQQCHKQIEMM
T1 sequence (P02550 whole entry partner): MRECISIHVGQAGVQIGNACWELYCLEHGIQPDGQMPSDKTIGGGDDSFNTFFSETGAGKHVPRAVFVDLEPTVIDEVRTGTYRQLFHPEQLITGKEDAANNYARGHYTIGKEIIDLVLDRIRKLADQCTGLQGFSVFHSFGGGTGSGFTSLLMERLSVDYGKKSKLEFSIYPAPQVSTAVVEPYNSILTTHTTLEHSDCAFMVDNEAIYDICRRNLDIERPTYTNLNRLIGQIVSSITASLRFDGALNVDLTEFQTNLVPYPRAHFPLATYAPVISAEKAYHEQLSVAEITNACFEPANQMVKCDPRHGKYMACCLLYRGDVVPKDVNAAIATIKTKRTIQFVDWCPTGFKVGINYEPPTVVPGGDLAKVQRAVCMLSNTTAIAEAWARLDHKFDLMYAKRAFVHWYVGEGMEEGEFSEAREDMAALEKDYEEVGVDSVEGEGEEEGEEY
T1 sequence (P02554 whole entry partner): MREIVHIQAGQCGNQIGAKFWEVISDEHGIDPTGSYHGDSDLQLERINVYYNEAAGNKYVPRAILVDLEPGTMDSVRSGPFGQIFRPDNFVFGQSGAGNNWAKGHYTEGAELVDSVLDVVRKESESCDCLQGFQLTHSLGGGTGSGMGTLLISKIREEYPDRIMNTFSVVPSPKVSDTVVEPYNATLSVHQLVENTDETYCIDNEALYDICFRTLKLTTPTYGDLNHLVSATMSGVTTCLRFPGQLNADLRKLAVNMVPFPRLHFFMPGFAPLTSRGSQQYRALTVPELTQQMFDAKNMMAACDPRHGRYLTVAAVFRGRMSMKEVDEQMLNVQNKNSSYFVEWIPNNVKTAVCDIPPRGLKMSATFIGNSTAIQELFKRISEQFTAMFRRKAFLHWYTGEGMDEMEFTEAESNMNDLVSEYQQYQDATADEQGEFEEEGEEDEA

SMILES | pIC50
CC1(C)CCN(c2ncccc2C(=O)Nc2cccc(S(=O)(=O)N3CCCCC3)c2)CC1 [Example 100, 2-(4,4-Dimethylpiperidin-1-yl)-N-(3-(piperidin-1-ylsulfonyl)phenyl)nicotinamide] | 6.26
O=C(Nc1cccc(S(=O)(=O)N2CCCCC2)c1)c1cccnc1N1CCC2(CC1)CC2 [Example 100-1, N-(3-(piperidin-1-ylsulfonyl)phenyl)-2-(6-azaspiro[2.5]octan-6-yl)nicotinamide] | 6.47
CCC1CCN(c2ncccc2C(=O)Nc2cccc(S(=O)(=O)N3CCCCC3)c2)CC1 [Example 100-2, 2-(4-ethylpiperidin-1-yl)-N-(3-(piperidin-1-ylsulfonyl)phenyl)nicotinamide] | 6.01
CCCC1CCN(c2ncccc2C(=O)Nc2cccc(S(=O)(=O)N3CCCCC3)c2)CC1 [Example 100-3, N-(3-(piperidin-1-ylsulfonyl)phenyl)-2-(4-propylpiperidin-1-yl)nicotinamide] | 6.18
O=C(Nc1cccc(S(=O)(=O)N2CCCCC2)c1)c1cccnc1N1CCC2(CCC2)CC1 [Example 100-4, N-(3-(piperidin-1-ylsulfonyl)phenyl)-2-(7-azaspiro[3.5]nonan-7-yl)nicotinamide] | 6.66
O=C(Nc1cccc(S(=O)(=O)N2CCC(F)CC2)c1)c1cccnc1N1CCC2(CCC2)CC1 [Example 100-5, N-(3-((4-fluoropiperidin-1-yl)sulfonyl)phenyl)-2-(7-azaspiro[3.5]nonan-7-yl)nicotinamide] | 6.80
O=C(Nc1cccc(S(=O)(=O)N2CCC(F)(F)CC2)c1)c1cccnc1N1CCC2(CCC2)CC1 [Example 100-6, N-(3-((4,4-difluoropiperidin-1-yl)sulfonyl)phenyl)-2-(7-azaspiro[3.5]nonan-7-yl)nicotinamide] | 7.05
O=C(Nc1cccc(S(=O)(=O)N2CCC(F)(F)CC2)c1)c1cccnc1N1CCC2(CC1)CC2 [Example 100-7, N-(3-((4,4-difluoropiperidin-1-yl)sulfonyl)phenyl)-2-(6-azaspiro[2.5]octan-6-yl)nicotinamide] | 6.98
O=C(Nc1cccc(S(=O)(=O)N2CCC(F)CC2)c1)c1cccnc1N1CCC2(CC1)CC2 [Example 100-8, N-(3-((4-fluoropiperidin-1-yl)sulfonyl)phenyl)-2-(6-azaspiro[2.5]octan-6-yl)nicotinamide] | 6.59
Cc1ccc(NC(=O)c2cccnc2N2CCC(C)(C)CC2)cc1S(=O)(=O)N1CCCCC1 [Example 100-9, 2-(4,4-dimethylpiperidin-1-yl)-N-(4-methyl-3-(piperidin-1-ylsulfonyl)phenyl)nicotinamide] | 6.55
Cc1ccc(NC(=O)c2cccnc2N2CCC3(CC2)CC3)cc1S(=O)(=O)N1CCCCC1 [Example 100-10, N-(4-methyl-3-(piperidin-1-ylsulfonyl)phenyl)-2-(6-azaspiro[2.5]octan-6-yl)nicotinamide] | 6.68
CC(C)NS(=O)(=O)c1cccc(NC(=O)c2cccnc2N2CCC3(CC2)CC3)c1 [Example 100-11, N-(3-(N-isopropylsulfamoyl)phenyl)-2-(6-azaspiro[2.5]octan-6-yl)nicotinamide] | 6.03
CC(C)(C)NS(=O)(=O)c1cccc(NC(=O)c2cccnc2N2CCC3(CC2)CC3)c1 [Example 100-12, N-(3-(N-(tert-butyl)sulfamoyl)phenyl)-2-(6-azaspiro[2.5]octan-6-yl)nicotinamide] | 6.76
Cc1ccc(NC(=O)c2cccnc2N2CCC3(CC2)CC3)cc1S(=O)(=O)NC1CC1 [Example 100-13, N-(3-(N-cyclopropylsulfamoyl)-4-methylphenyl)-2-(6-azaspiro[2.5]octan-6-yl)nicotinamide] | 6.15
O=C(Nc1cccc(S(=O)(=O)C2CCCC2)c1)c1cccnc1N1CCC2(CC1)CC2 [Example 100-14, N-(3-(cyclopentylsulfonyl)phenyl)-2-(6-azaspiro[2.5]octan-6-yl)nicotinamide] | 6.54
CCC1CCN(c2ncccc2C(=O)Nc2cccc(S(=O)(=O)C3CCCC3)c2)CC1 [Example 100-15, N-(3-(cyclopentylsulfonyl)phenyl)-2-(4-ethylpiperidin-1-yl)nicotinamide] | 6.07
CCC1(C)CCN(c2ncccc2C(=O)Nc2cccc(S(=O)(=O)C3CCCC3)c2)CC1 [Example 100-16, N-(3-(cyclopentylsulfonyl)phenyl)-2-(4-ethyl-4-methylpiperidin-1-yl)nicotinamide] | 6.00
CCCC1CCN(c2ncccc2C(=O)Nc2cccc(S(=O)(=O)C3CCCC3)c2)CC1 [Example 100-17, N-(3-(cyclopentylsulfonyl)phenyl)-2-(4-propylpiperidin-1-yl)nicotinamide] | 6.11
O=C(Nc1cccc(S(=O)(=O)C2CCCC2)c1)c1cccnc1N1CCC2(CCC2)CC1 [Example 100-18, N-(3-(cyclopentylsulfonyl)phenyl)-2-(7-azaspiro[3.5]nonan-7-yl)nicotinamide] | 6.87
O=C(Nc1cccc(S(=O)(=O)C2CCCC2)c1)c1cccnc1N1CCC2(CC1)CC(F)(F)C2 [Example 100-19, N-(3-(cyclopentylsulfonyl)phenyl)-2-(2,2-difluoro-7-azaspiro[3.5]nonan-7-yl)nicotinamide] | 6.13
Cc1ccc(NC(=O)c2cccnc2N2CCC3(CC2)CC3)cc1S(=O)(=O)C1CCCC1 [Example 100-20, N-(3-(cyclopentylsulfonyl)-4-methylphenyl)-2-(6-azaspiro[2.5]octan-6-yl)nicotinamide] | 6.55
O=C(Nc1cccc(S(=O)(=O)C2CCCC2)c1F)c1cccnc1N1CCC2(CC1)CC2 [Example 100-21, N-(3-(cyclopentylsulfonyl)-2-fluorophenyl)-2-(6-azaspiro[2.5]octan-6-yl)nicotinamide] | 6.12
O=C(Nc1cccc(S(=O)(=O)CC2CC2)c1)c1cccnc1N1CCC2(CC1)CC2 [Example 100-22, N-(3-((cyclopropylmethyl)sulfonyl)phenyl)-2-(6-azaspiro[2.5]octan-6-yl)nicotinamide] | 6.04
O=C(Nc1cccc(S(=O)(=O)C2CCCCC2)c1)c1cccnc1N1CCC2(CC1)CC2 [Example 100-23, N-(3-(cyclohexylsulfonyl)phenyl)-2-(6-azaspiro[2.5]octan-6-yl)nicotinamide] | 6.21
O=C(Nc1cccc(S(=O)(=O)C2CCC2)c1)c1cccnc1N1CCC2(CC1)CC2 [Example 100-24, N-(3-(cyclobutylsulfonyl)phenyl)-2-(6-azaspiro[2.5]octan-6-yl)nicotinamide] | 6.03
O=C(Nc1cccc(S(=O)(=O)NC2CC2)c1)c1cccnc1N1CCC2(CC1)CC2 [Example 101, N-(3-(N-cyclopropylsulfamoyl)phenyl)-2-(6-azaspiro[2.5]octan-6-yl)nicotinamide] | 6.29

Now from value to molecule:

pIC50 | SMILES
7.15 | CC(C)(C)NS(=O)(=O)c1cccc(NC(=O)c2ccc([C@](C)(O)C(F)(F)F)nc2N2CCC3(CC2)CC3)c1 (single isomer, unassigned) [Example 107-1]
7.01 | CC(C)(C)NS(=O)(=O)c1cccc(NC(=O)c2ccc([C@@](C)(O)C(F)(F)F)nc2N2CCC3(CC2)CC3)c1 (single isomer, unassigned) [Example 107-2]
7.06 | CC(C)(C)NS(=O)(=O)c1cccc(NC(=O)c2ccc([C@](C)(O)CO)nc2N2CCC3(CC2)CC3)c1 (single isomer, unassigned) [Example 109-1]
7.19 | CC(C)(C)NS(=O)(=O)c1cccc(NC(=O)c2ccc([C@@](C)(O)CO)nc2N2CCC3(CC2)CC3)c1 (single isomer, unassigned) [Example 109-2]
6.49 | O=C(Nc1cccc(S(=O)(=O)NC2CCC2)c1)c1cccnc1N1CCC2(CC1)CC2 [Example 101-1, N-(3-(N-cyclobutylsulfamoyl)phenyl)-2-(6-azaspiro[2.5]octan-6-yl)nicotinamide]
6.21 | CN(C1CCC1)S(=O)(=O)c1cccc(NC(=O)c2cccnc2N2CCC3(CC2)CC3)c1 [Example 101-2, N-(3-(N-cyclobutyl-N-methylsulfamoyl)phenyl)-2-(6-azaspiro[2.5]octan-6-yl)nicotinamide]
6.72 | CC1(NS(=O)(=O)c2cccc(NC(=O)c3cccnc3N3CCC4(CC3)CC4)c2)CCC1 [Example 101-3, N-(3-(N-(1-methylcyclobutyl)sulfamoyl)phenyl)-2-(6-azaspiro[2.5]octan-6-yl)nicotinamide]
6.04 | O=C(Nc1cccc(S(=O)(=O)NC2CCCCC2)c1)c1cccnc1N1CCC2(CC1)CC2 [Example 101-4, N-(3-(N-cyclohexylsulfamoyl)phenyl)-2-(6-azaspiro[2.5]octan-6-yl)nicotinamide]
6.40 | O=C(Nc1cccc(S(=O)(=O)N2CC(F)(F)C2)c1)c1cccnc1N1CCC2(CC1)CC2 [Example 101-5, N-(3-((3,3-difluoroazetidin-1-yl)sulfonyl)phenyl)-2-(6-azaspiro[2.5]octan-6-yl)nicotinamide]
6.24 | O=C(Nc1cccc(S(=O)(=O)N2CCC(F)(F)C2)c1)c1cccnc1N1CCC2(CC1)CC2 [Example 101-6, N-(3-((3,3-difluoropyrrolidin-1-yl)sulfonyl)phenyl)-2-(6-azaspiro[2.5]octan-6-yl)nicotinamide]
6.49 | CC1(NS(=O)(=O)c2cccc(NC(=O)c3cccnc3N3CCC4(CC3)CC4)c2)CC1 [Example 101-7, N-(3-(N-(1-methylcyclopropyl)sulfamoyl)phenyl)-2-(6-azaspiro[2.5]octan-6-yl)nicotinamide]

— patent publication US12540129B2, “KIF18A inhibitors” (AMGEN INC., priority 2019, dated 2026)
